In patent publication US20080009025A1, “PROTEIN KINASE REGULATION” (priority 1999, published 2008):
Where a SMILES comes first, the peptide text is derived from it.

What was measured:
PDK1 [1] = biological target: T1, PDK1 (Homo sapiens, UniProt O15530); experiment: Surface plasmon resonance binding of His-PDK1 to immobilised p70 S6K; conditions: 10 μM peptide
T1 construct: Full length PDK1 (residues 1-556); made in house; host or cells: 293 cells
T1 sequence (O15530 52-556): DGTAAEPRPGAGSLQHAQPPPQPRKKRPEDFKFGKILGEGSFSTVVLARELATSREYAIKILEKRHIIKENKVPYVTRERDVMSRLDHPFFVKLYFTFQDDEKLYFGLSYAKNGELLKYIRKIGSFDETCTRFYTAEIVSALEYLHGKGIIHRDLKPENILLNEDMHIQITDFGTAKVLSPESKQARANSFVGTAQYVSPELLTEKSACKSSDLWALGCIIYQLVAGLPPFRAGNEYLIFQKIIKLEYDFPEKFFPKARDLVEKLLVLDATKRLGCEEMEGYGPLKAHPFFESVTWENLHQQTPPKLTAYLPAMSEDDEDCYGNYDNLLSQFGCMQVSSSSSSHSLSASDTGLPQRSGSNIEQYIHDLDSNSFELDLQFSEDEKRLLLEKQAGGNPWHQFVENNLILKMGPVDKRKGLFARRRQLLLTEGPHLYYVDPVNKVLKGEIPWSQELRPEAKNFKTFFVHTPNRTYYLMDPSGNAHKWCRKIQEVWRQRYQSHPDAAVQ
Description: FIG. 6. Quantitative analysis of the binding of PDK1 to p70 S6K. Surface Plasmon Resonance measurements were carried out on a BiaCore instrument as described in the Methods. His-PDK1 was injected at the indicated concentrations over (A) 2000 RUs of p70 S6K-T2 (closed squares), or 412Ep70 S6K-T2 (closed circles) which was immobolised by amine coupling to a CM5 Sensorchip. Experiments carried out in the presence of either 10 μM wild type PIF peptide (hexagons) or 10 μM D978A mutant PIF peptide (triangles) are indicated. The responses at steady state binding were recorded. All data are single determinations from a representative experiment that was repeated at least 3 times with similar results.
Surface plasmon resonance measurements of PDK1 binding to p70 S6 kinase. p70 S6K-T2 and T412Ep70S6K-T2 mutant were amine coupled to a CM5 sensor chip (BIAcore AB) according to the manufacturer's instructions. The indicated concentrations of His-PDK1 was injected over the chip at a flow rate of 30 μl/min and the steady-state binding determined, in the presence or absence of PIF peptide. The apparent equilibrium dissociation constant (Kd) for the binding of His-PDK1 to p70 S6 kinase was determined by fitting the increase in steady-state binding upon increased PDK1 concentration to a rectangular hyperbola using SigmaPlot 4 (SPSS Inc). […]

PDK1 [2] = experiment: Activation of AGC kinase substrates by PDK1 (Crosstide assay); format: biochemical, human; conditions: for inhibition of the activation of S6K1-T2[T412E] and SGK1[T422D] by PDK1 PIF pocket mutants: PDK1[K115A], [I119A], [Q150A], [L155A]
Description: FIG. 20. Effect of PIFtide on the activation of S6K1 and SGK1 by PDK1 PIF pocket mutants (155A, 115A, 119A, 150A). GST-PDK1, GST-PDK1 L155E, 155A, 115A, 119A and 150A were tested for their ability to activate His-S6K1 412E and GST-SGK1 422D. The phosphorylation and activation of substrates was performed as described in FIG. 17. When PIFtide was included in the reaction, it was pre-incubated on ice for ˜15 min until the reaction was initiated with the addition of ATP-Mg.
Activation of AGC kinase PDK1 substrates. Phosphorylation reactions were carried out as above except that non-radioactive ATP replaced [γ-^32P]ATP. Following 10 min at 30° C., cocktail (30 μl) containing 50 mM Tris-HCl pH 7.5, 0.1% (by vol) 2-mercaptoethanol, 10 mM magnesium chloride, […], 0.5 μM microcystin-LR and 100 μM peptide substrate crosstide (GRPRTSSFAEG) and [γ-^32P]ATP (˜600 c.p.m./pmol). Reactions were stopped by the addition of 25 μl of 0.2 M EDTA pH 8.0, spotted onto P81 phosphocellulose paper, washed and analysed as described for the assay of MAP kinase. The amount of PDK1 was in the assay was varied so that the assay was in the linear range. One unit of activity is deficed as phosphorylation 1 nmol of substrate in 1 min.

PDK1-wt = biological target: T2, PDK1-wt (Homo sapiens, UniProt O15530); experiment: Phosphorylation of AGC kinase substrates by PDK1 (32P, PhosphoImager); format: biochemical; conditions: hydrophobic motif Phe to Ala mutants
T2 construct: made in house; host or cells: human embryonic kidney 293 cells
T2 sequence (O15530 1-556): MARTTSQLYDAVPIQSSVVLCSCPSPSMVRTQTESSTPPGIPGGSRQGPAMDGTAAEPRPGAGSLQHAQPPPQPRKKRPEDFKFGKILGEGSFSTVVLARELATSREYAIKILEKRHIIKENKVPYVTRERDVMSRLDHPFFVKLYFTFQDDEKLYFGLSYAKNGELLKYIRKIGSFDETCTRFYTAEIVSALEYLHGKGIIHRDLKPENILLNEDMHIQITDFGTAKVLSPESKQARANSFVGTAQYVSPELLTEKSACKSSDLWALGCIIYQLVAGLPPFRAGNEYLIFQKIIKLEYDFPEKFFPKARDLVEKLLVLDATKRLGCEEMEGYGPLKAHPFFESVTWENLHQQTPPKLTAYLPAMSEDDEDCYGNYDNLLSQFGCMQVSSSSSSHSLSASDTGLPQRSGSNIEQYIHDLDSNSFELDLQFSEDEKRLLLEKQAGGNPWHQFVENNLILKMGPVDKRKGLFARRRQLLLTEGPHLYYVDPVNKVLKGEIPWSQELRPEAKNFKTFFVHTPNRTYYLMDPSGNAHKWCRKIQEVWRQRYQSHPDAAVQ
Description: Phosphorylation of AGC kinase substrates by PDK1. The phosphorylation of PDK1 substrates was performed in a final volume of 20 μl in a buffer containing 50 mM Tris-HCl pH 7.5, 0.1% (by vol) 2-mercaptoethanol, 10 mM magnesium chloride, 100 μM [γ-^32P]ATP (˜1000 c.p.m./pmol), 0.5 μM microcystin-LR, 0.6 μM AGC kinase substrate and 0.6 to 30 nM wild type PDK1 or the indicated mutant of PDK1.
Relative phosphorylation of PDK1 substrates. PDK1 substrates were phosphorylated in vitro, subjected to SDS-PAGE, and radioactivity associated with the bands measured using a Phospho-Imager and known amounts of ATP as standard. The phosphorylation rate of PKB[S473D] in the presence of PtdIns (3,4,5)P3 was 2.6 mol/mol PDK1/min and was taken as the relative value of 100. Average values from a representative experiment performed in duplicates are shown.

CC[C@H](C)[C@H](NC(=O)[C@H](Cc1ccc(O)cc1)NC(=O)[C@H](CC(=O)O)NC(=O)[C@H](Cc1ccccc1)NC(=O)[C@H](CC(=O)O)NC(=O)[C@H](CCCNC(=N)N)NC(=O)[C@H](Cc1ccccc1)NC(=O)[C@H](CCSC)NC(=O)[C@H](CCC(=O)O)NC(=O)[C@H](CCC(N)=O)NC(=O)[C@H](CCC(=O)O)NC(=O)[C@H](CCC(=O)O)NC(=O)[C@H](CCC(=O)O)NC(=O)[C@H](CO)NC(=O)[C@H](CC(C)C)NC(=O)[C@@H](NC(=O)[C@H](CCCNC(=N)N)NC(=O)[C@@H]1CCCN1C(=O)[C@H](CCC(=O)O)NC(=O)[C@@H](N)CCCNC(=N)N)[C@@H](C)CC)C(=O)N[C@@H](C)C(=O)N[C@@H](CC(=O)O)C(=O)N[C@@H](Cc1c[nH]c2ccccc12)C(=O)N[C@@H](CS)C(=O)O [PIFtide] (H-REPRILSEEEQEMFRDFDYIADWC-OH; N-terminus and C-terminus assumed)
effect on the interaction between PDK1 and 412E-p70 S6K-T2 (PDK1 [1]): abolished
inhibition of the activation of S6K1[T412E] by wild type PDK1 (PDK1 [2]; 2 μM PIFtide): > 20 fold
inhibition of the activation of S6K1-T2[T412E] and SGK1[T422D] by PDK1 PIF pocket mutants (PDK1 [2]; 2 μM PIFtide): ~50%
inhibition of the activation of S6K1-T2[T412E] and SGK1[T422D] by PDK1 PIF pocket mutants (PDK1 [2]; 35 μM PIFtide): over 95%
PDK1's ability to phosphorylate and activate SGK1, ΔPH-PKBα, S6K1[T412E], SGK1[T422D] and ΔPH-PKBα[S473D] (PDK1 [2]; in the presence of PIFtide): markedly inhibited
basal rate at which PDK1 phosphorylated S6K1[F411A], SGK1[F421A] and ΔPH-PKBα[F472A] (PDK1-wt): not inhibited
